From a melting point compilation (Tetko et al.; mined from patent text by program, amines drawn as free bases though some values may be those of a salt) come the findings set out here.

Some results are limits rather than exact numbers.

In turn, `CCCc1c(OCCCOc2ccc(Br)cc2)ccc2c1OC(CCC(=O)O)(CCC(=O)O)CC2=O` registered a melting point of 136 °C.
Molecule `Cc1cc(-c2ccnc(Cl)c2)n(-c2ccc(Cl)cc2)n1` came in with a melting point of 110 °C.
For the molecule `Cc1onc(-c2ccccc2)c1-c1[nH]c2ccccc2c1C(=O)C(=O)N(C)C`, the melting point lay within 258 to 260 °C.
`O=c1c2c(nc3ccc(Br)cn13)C(=Cc1ccc(Cl)cc1Cl)CC2` showed a melting point of 164 to 166 °C.
On to `C#Cc1ncn2c(C(F)(F)F)cc(-c3ccc(C(F)(F)F)cc3)nc12`, for which the melting point turned out to be 163 °C.
For the molecule `CC(C)Cn1c(=O)n(C)c(=O)c2c(C#CCCO)n(Cc3cccc4ccccc34)cc21`, the melting point lay within 170 to 171 °C.
Regarding `CC(=O)N1CCC(NC(=O)Nc2cccc(F)c2)CC1`, the melting point lay within 112 to 114 °C.
`CSC1NC(=O)N(C)C(=O)N1N` (stereo unspecified) displayed a melting point of 174 to 175 °C.
The molecule `CC1(C)CC(OC(=O)Nc2ccccc2)CC(C)(C)N1CC(OC(=O)Nc1ccccc1)c1ccccc1` (stereo unspecified) displayed a melting point of 173 °C.
As for `CCCCCCOc1nccc(C(N)=O)c1Cl`, the melting point was in the range of 75 to 77 °C.
Turning to `Cc1nc2cnc3cc(Cl)ccc3c2s1`, the melting point lay in the range of 181 to 183 °C.
Regarding `Oc1cccc(Cc2n[nH]c3ccccc23)c1`, the melting point is 170 to 172 °C.
The figure for `O=C(O)c1c2nc3cc(Cl)c(Br)cc3c-2[nH]c2ccccc12` is above 243 °C; for `O=c1ccc(S(=O)(=O)c2oc3ccc(Cl)cc3c2O)n[nH]1` it is above 240 °C.
On to `O=C(O)CCCCCNC(=O)S[C@@H]1CC(=O)N(Cc2ccc(Oc3ccc(F)cc3)nc2)C1`, for which the melting point was 129 to 130 °C.
The molecule `CCCOc1ccnc2[nH]ccc12` came in with a melting point of 189 to 191 °C.
On to `Cn1cccc1C=CC1=CC(=O)C(C)(C)O1`, for which the melting point was 98.5 to 100 °C.
`c1ccc(-c2cnn3cc(-c4ccc(CCCN5CCOCC5)cc4)cnc23)cc1` displayed a melting point of 147 to 149 °C.
Then `CCCn1c(=O)c2[nH]c(/C=C/c3ccc4c(c3)OCCO4)nc2n(CCC)c1=O`, with above 275 °C; and `O=C(NCc1cccs1)c1cc2ccnc(Cl)c2[nH]1`, with 179 to 181 °C; and `N#Cc1cccc(-c2ccc3c(Cl)cnc(Cl)c3c2)c1`, with above 300 °C.
`CC(C(=S)c1cccc(NC=O)n1)S(C)=O` (stereo unspecified): the melting point was 130 to 132 °C.
`O=C(O)c1ccc(COc2ccc3cc(-c4csc(-c5ccccc5)n4)ccc3c2Br)cc1` had a melting point of 268 to 270 °C.
`BrCc1ccc(-c2ccc(CBr)cc2)cc1` registered a melting point of 166 to 168 °C.
`CCOC(=O)c1sc(Cc2ccccc2)nc1O` showed a melting point of 97 to 98 °C.
In turn, `Nc1nc(-c2cc(Cl)ccc2Cl)nc(N2CCC[C@H]2C(=O)O)n1` displayed a melting point of 144 to 147 °C.
The figure for `CCCCOc1ccc(-c2ccc(=O)[nH]n2)cc1OC` is 165 °C.
As for `CS(=O)Cc1cc(=O)c2ccccc2o1` (stereo unspecified), the melting point fell in the range of 142 to 146 °C.
Then `COCC1OC(OC(C)=O)C(OC(C)=O)C(OC(C)=O)C1OC(C)=O` (stereo unspecified), with 102 to 103 °C.
In the case of `CNN1c2c(cc(Oc3ccc(F)cc3F)c(=O)n2NC)C=NC1NC1CCOCC1` (stereo unspecified), the melting point was in the range of 80.5 to 89.9 °C.
`CC(SC1COC(c2ccc(C(=O)Nc3ccc(Cl)cc3)cc2)OC1)C(O)(Cn1cncn1)c1ccc(F)cc1F` (stereo unspecified) showed a melting point of 210 °C.
`CCCOc1ccc(/C=C/C(=O)O)cc1-c1nc2c(c(C)nn2CCC)c(=O)[nH]1` came in with a melting point of 231 to 232 °C.
In turn, `CC(C)NC(=O)NC(C)(C)C(=O)NCCO[N+](=O)[O-]` came in with a melting point of 120 to 122 °C.
Consider `CCC(C)C(CO)NC(=O)CC(O)C(CC(C)C)NC(=O)C(Cc1cscn1)NC(=O)C(Cc1cccc2ccccc12)NC(=O)OCc1ccccc1` (mixture of isomers), for which the melting point was 167 to 169 °C.
Molecule `CN1C(=O)N(C[C@H](CO)[C@@H](CC2CCCC2)C(=O)N2CCCCC2)C(=O)C1(C)C` displayed a melting point of 92 to 95 °C.
`CSCC[C@H](NC(=O)C1(CS)Cc2ccccc2C1)C(=O)O` displayed a melting point of 68 to 69 °C.
Then `CNC(=S)NCCCCc1nc[nH]c1Br`, with 153 to 155 °C; and `Nc1ccc(/C=C/c2c(F)cccc2F)cc1`, with 74 to 75 °C.
As to `Cc1cccc(-c2c[nH]nc2-c2ccnc(-c3ccc(OCC(=O)N4CCOCC4)cc3)c2)n1`, the melting point was 170 °C.
`CCN(O)Cc1nnc2n1-c1ccc(Cl)cc1C(c1ccccc1)=NC2` yielded a melting point of 154 to 157 °C.
The molecule `COC(=O)CC(=O)c1ncccc1Cl` displayed a melting point of 113 to 116 °C.
The figure for `O=C(O)Cc1c(C(=O)c2ccc(-c3nccs3)cc2)[nH]c2cc(Cl)ccc12` is 230 to 233 °C; for `O=C1NC(=O)C(Cc2ccc(OCCc3cccc4ccccc34)cc2)S1` (stereo unspecified) it is 121 to 122 °C; for `Clc1nc(N2CCOCC2)nc(N2CCOCC2)n1` it is 174 °C.
The figure for `COc1ccc(C2(C)C(=O)Nc3cc(Cl)cc(Cl)c3C2=O)cc1` (stereo unspecified) is 210 to 212 °C; for `COC(=O)c1cc(-c2ccccc2)c(=O)n2c1-c1sccc1CN2C` it is 180 to 181 °C; for `O=S(=O)(c1cc(-c2ccncc2)sc1-c1ccncc1)N1CCCC1` it is 193 to 195 °C.
With `Cn1c(=O)oc2cc3c(cc21)OCC31C(=O)N(CC2CCCO2)c2ccccc21` (stereo unspecified), the melting point lay in the range of 186 to 187 °C.
In the case of `COc1cc(Nc2nccc(Nc3ccc(OCC(=O)OC(C)(C)C)cc3)n2)cc(OC)c1OC`, the melting point came out at 139 °C.
The molecule `COc1cc2ncnc(N3CCN(C(=S)Nc4ccccn4)CC3)c2cc1OC` gave a melting point of 208 to 210 °C.
`COc1ccc(NS(=O)(=O)c2cc(C)c3cc(C(C)C)ccc(C)c2-3)c(OC)c1` displayed a melting point of 114 to 116 °C.
Then `COc1cc(C(=O)N2Cc3cccn3Cc3ccccc32)ccc1-n1c(C)ccc1C`, with 141 to 144 °C; and `CC(=O)c1cc(C(C)=O)cc(N(C(C)=O)C(=O)Nc2ccccc2)c1`, with 223 to 224 °C; and `O=C(Cc1ccnc2c1NC(=O)c1cccnc1N2C1CC1)c1ccccc1`, with 195 to 197 °C.
Take `O=c1[nH]cccc1-c1cccnc1`: the melting point was 189 to 192 °C.
Turning to `O=CNc1ccc(C(=O)N(CCN2CCC(C(=O)c3ccc(F)cc3)CC2)c2cccnc2)cc1`, the melting point is 147 to 148 °C.
For the molecule `CCc1cn(C2CC(O)C(CSCc3ccccc3)O2)c(=O)[nH]c1=O` (stereo unspecified), the melting point is 149 to 151 °C.
In turn, `COc1cc(C(C)=O)ccc1OCCCCN1CCN(c2n[nH]c3cc(Cl)ccc23)CC1` gave a melting point of 189 to 191 °C.
In turn, `CCN1C(=O)N(c2ccc(C#N)c(C(F)(F)F)c2)C(=O)C1(CF)CF` gave a melting point of 129 to 130 °C.
`CCN(CC)c1cc(=S)ss1` showed a melting point of 93 °C.
`CCOC(=O)c1cnn2c1c(NC1CC1)nc1ccccc12` gave a melting point of 167 to 169 °C.
With `O=[N+]([O-])c1cc(F)c(N2CCCCC2)cc1Cl`, the melting point was 70 °C.
Consider `NC(=O)c1cn(-c2ccc(Cl)c(Cl)c2)cn1`, for which the melting point is 244 to 245 °C.
The figure for `CC(C)CC1(CC(=O)NO)C(=O)N(CCc2ccccc2)C(=O)N1C` (stereo unspecified) is 127 to 129 °C; for `Nc1c(C(=O)O)cc(Br)nc1Br` it is 251 to 253 °C.
The molecule `O=C(NC12CC3CC(CC(C3)C1)C2)c1cc(O)c(O)cc1[N+](=O)[O-]` registered a melting point of 250 to 255 °C.
Take `ClCC=C(c1ccc(Br)cc1)c1cccnc1`: the melting point lay within 156 to 159 °C.
In the case of `Clc1ccc2c(c1)C(n1ccnc1)c1ccccc1CS2` (stereo unspecified), the melting point lay in the range of 175 to 176 °C.
Regarding `CC(=O)OCc1cc(N)ccc1N1C(=O)c2ccc(Cl)cc2C1=O`, the melting point lay within 136 to 138 °C.
Regarding `CCN(CC)CCNC(=O)N1CCCC(S(=O)(=O)c2ccc(C)cc2)C1` (stereo unspecified), the melting point lay in the range of 116 to 118 °C.
Molecule `CN1CCN(C(=O)c2cc(Oc3ccc4c(c3)CCN4C(=O)Nc3cccc(C(F)(F)F)c3)ncn2)CC1` displayed a melting point of 203 to 204 °C.
`NC(=S)C1(c2ccccn2)CCCS1` (stereo unspecified) displayed a melting point of 192 °C.
Turning to `Cc1nc2n(C)ncn2c(=O)c1CCO`, the melting point is 215 °C.
In turn, `CCCCC1(C(=O)Nc2ccc(Oc3ccc(Cl)cc3)c(C(F)(F)F)c2)CC1` came in with a melting point of 104 to 106 °C.
The molecule `O=C(O)Cc1cc(Br)ccc1OCc1ccccc1` had a melting point of 87 to 88.5 °C.
In the case of `O=S(=O)(Nc1ccccc1O)c1ccc(Cl)cc1`, the melting point is 82 °C.
`NS(=O)(=O)c1ccccc1CCC(F)(F)F` displayed a melting point of 148 to 149 °C.
In turn, `CN1CCCC(c2ccccc2)c2[nH]c3ccccc3c2CC1` (stereo unspecified) came in with a melting point of 117 to 119 °C.
The molecule `COC(=O)C(=CO)c1ccccc1` gave a melting point of 33.5 to 35.5 °C.
`COC1=C(OC)C(=O)C(CCC(=O)N2CCC[C@H]2C(=O)O)=C(C)C1=O` had a melting point of 131 °C.
As to `CC(C(=O)O)c1cccc(C(=O)c2cc3cc(C(=O)O)sc3s2)c1` (stereo unspecified), the melting point turned out to be 244 °C.
`CCCCN1CCC(n2c(=O)[nH]c3ccc(Br)cc32)CC1` came in with a melting point of 179 to 181 °C.
`CC(=O)OC1CSC(OC(=N)C(Cl)(Cl)Cl)C(OC(C)=O)C1OC(C)=O` (stereo unspecified) displayed a melting point of 110 °C.
The molecule `CC(=O)COc1nc(N2CCCCC2)c2nc(OCC(C)=O)nc(N3CCCCC3)c2n1` gave a melting point of 188 to 189 °C.
The figure for `Cc1cc(I)ccc1Nc1c(-c2nnn[nH]2)ccc(F)c1F` is 83.4 to 88.7 °C; for `CCc1ccc(NC(=O)Nc2ccc(Oc3ccnc(OC)c3)cc2)cc1` it is 196 °C; for `CCCN(C(C)C)C(C)CC1=C(c2ccc(OC)cc2)CCCNC1=O` (stereo unspecified) it is 90 to 92 °C.
Then `CCn1nc2c(N)nc3cc(OC)ccc3c2c1CCc1ccccc1`, with 162 to 163 °C; and `C[C@@H](NC(=O)OC(C)(C)C)c1nc2c(C(F)(F)F)cccc2c(O)c1C(=O)Nc1nccs1`, with 265 °C; and `CCCCCCCCCCCCCCCCSCC(CNS(=O)(=O)CCCCl)COC` (stereo unspecified), with 41.5 to 43 °C.
As to `Cc1c(C)c(N2CCN(Cc3ccccc3)CC2)c(C)c2c1OC(C)(C)C2(O)c1ccc(F)nc1` (stereo unspecified), the melting point lay within 105 to 109 °C.

As a reminder, the melting point is the temperature, or range, at which the solid turns liquid.
